For assay [1], the system named is Recombinant RSV virus producing green fluorescent protein (gRSV). Nature of the assay: Intracellular RSV growth, real-time fluorescence of GFP-producing RSV (gRSV) in A549 cells. The format is cell-based, Respiratory Syncytial Virus. The following applies: cultured A549 cells; beginning 12 hours after addition of nM DIM (70, 210, 700 nM); FIG. 3. From the text:
Levels of Intracellular RSV Growth—A real-time fluorescence measurement of live infected cells was utilized to determine the intracellular levels of RSV. Quantitation of real-time RSV growth in live cells was accomplished using a strain of RSV virus which produces florescent protein. Recombinant RSV virus producing green fluorescent protein (GFP) (‘green RSV’, abbreviated as ‘gRSV’) was kindly provided by Dr. Mark Peeples (Columbus Children's Res. Inst., Ohio). A549 cell monolayers were infected with the gRSV in the presence of indicated concentrations of DIM, and were periodically observed by fluorescence microscopy. For quantification, the fluorescence was measured in a standard plate-reader.

The next assay deals with RSV, strain A2. Put plainly: Production of infectious RSV from infected A549 cells (plaque titer on HEp-2 monolayers). The assay is classed as cell-based, Respiratory Syncytial Virus. The protocol:
Cell Culture—A549 cells, a tumor cell line with properties of normal airway epithelial cells, were obtained from American Type Culture Collection (ATCC, Manassas, Va.) and incubated at 37° C. in 5% CO2. The cells were cultured in Eagle's minimum essential medium (MEM, Invitrogen) supplemented with 10% fetal bovine serum (HyClone, Logan, Utah) and […] gentamicin. The A549 cells were subcultured by harvesting in 0.12% trypsin no more than 20 times from stock originally designated at pass 70. To minimize effects of exogenous growth factors or cytokines in this system, the supplemented serum concentration was reduced to 0.5% 24 h prior to and during all experiments with RSV infection. […] RSV Virus—RSV, strain A2, was obtained from Advanced Biotechnologies Inc. (Columbia, Md.) and was used directly as supplied for all experiments. The viral preparation was tested to have a TCID50 titer of ˜1×10^9 in Hep-2 cells at 7 days. […] Levels of Production of Infectious RSV—Production of infectious RSV particles in A549 cell culture in the presence of various concentrations of DIM was measured using a method where the cell free media were titered for RSV infectious activity on a monolayer culture of Hep-2 cells. […] The plaques that appeared around 48 h of incubation were visualized by neutral red staining and counted.

A further assay has as its system rainbow trout. As to conditions: cited from earlier work.
The test system of a further assay is RSV A2. Nature of the assay: RSV infection in cyclophosphamide pre-treated mice (pulmonary titer, histology). The assay is classed as in vivo. The following applies: cyclophosphomide pre-treated mice; vs vehicle treated placebo group. From the text:
Another in vivo model of RSV infection has been developed using mice treated with cylphosphamide to induce immune deficiency and create a standardized receptive host for experimental infection (Sudo et al., 1999, Antivir Chem Chemother. 10:135-9). The technique provides for quantitation of pulmonary viral load following induced infection. This model can be used to assess the impact of daily intraperitoneal injections of DIM and/or an EGFR inhibitor drug (Gefitinib or Erlotinib) on in vivo RSV replication and induced pathology.
Alternatively, mice are treated intraperitoneally with 100 mg of cyclophosphamide (CYP) per kg of body weight 5 days before virus inoculation. The mice are weighed, anesthetized with sodium pentobarbital (50 mg/kg), and inoculated intranasally with approximately 10^5 PFU of RSV A2 in 50 μl (day 0). […]
Alternatively, the removed lungs are homogenized with glass homogenizers with a Teflon pestle (Ikemoto Scientific Technology Co., Ltd., Tokyo, Japan) in 4 ml of Hanks balanced salt solution supplemented with 0.218 M sucrose, 4.4 mM glutamate, 3.8 mM KH2PO4, and 3.2 mM K2HPO4 as described previously (Piazza et al., 1993, J. Virol. 67:1503-1510). […] The numbers of RSV plaques are counted.
Histologic methods and evaluation. […] The stained sections are coded by number and are evaluated blind as to the previous treatment. […]

The structures appear in SMILES notation. “Also recorded” adds a separate entry of the source.

Consider `c1ccc2c(Cc3c[nH]c4ccccc34)c[nH]c2c1` [DIM, 3,3′-diindolylmethane], for which, in assay [1], the “intracellular RSV activity (growth)” value is “reduced intracellular RSV growth; also recorded: significantly reduced”. Moreover, the “RSV yield: viral replication and production of extracellular, progeny RSV viral particles” value in the assay on RSV, strain A2 (72 hour treatment of infected A549 cells, DIM 70, 210, 700 nM, LY294002 2 and 5 μM, FIG. 2) was “reduced production of infectious, progeny RSV virons; also recorded: significantly reduced viral replication and production of extracellular, progeny RSV viral particles”. In addition, the “Reduction of RSV replication by DIM compared with LY294002” value in the assay with RSV, strain A2 (infected A549 cells, 72 h, nM DIM vs higher concentrations of LY294002) is “equal or greater to that caused by LY294002; also recorded: comparable to that seen with higher concentrations of LY294002”. Further, the estrogenic activity entry in the assay on rainbow trout is reported as “estrogenic”. Further, in the assay with RSV A2, the “pathology score on histologic examination” value is “reduced pathology score” and the “pulmonary RSV titers” value is reported as “reduction of pulmonary RSV titers”.

Values taken from US8552052B2, “Use of diindolylmethane-related indoles for the treatment and prevention of respiratory syncytial virus associated conditions” (BioResponse, L.L.C., priority 2004, dated 2013).
